In patent US6960574B2, “Antagonists of RF-amide neuropeptides” (University of Florida, priority 2002, dated 2005):
Where two headings read alike, the source gives them in different places. Peptide text beside a SMILES is read from it. * marks the point of attachment. Dansyl = CN(C)c1cccc2c(S(=O)(=O)*)cccc12; Desaminotyrosyl = O=C(CCc1ccc(O)cc1)*

Tests used:
[1] = Immobilized artificial membrane (IAM) chromatography; type: physicochemical
Description: The purity of this new neuropeptide FF antagonist was confirmed by combustion analysis [Table 1] (data were within ±0.4% of calculated values) and ESI mass spectrometry (no impurities exceeding 1% based on relative ion abundance). […] The compounds were also characterized by immobilized artificial membrane (IAM) chromatography, a method that furnishes capacity factors whose logarithm generally correlates with in vivo absorption [Pidgeon, et al., J. Med. Chem. 1995, 38, 590-594] including penetration across the BBB [Reichel, et al., Pharm. Res. 1998, 15, 1270-1274].
The combinatorial libraries herein were prepared on a SynPep (Dublin, Calif.) multiple peptide synthesizer. A Synthor 2000, Peptide International (Louisville, Ky.) instrument was used for the preparation of the individual compounds by Fmoc chemistry. Immobilized artificial membrane (IAM) chromatography was performed on a system that included a model SP 8810 precision isocratic pump, an SP 8880 autosampler with a 20-μL injection loop, an SP 8450 variable wavelength UV/VIS detector operated at 254 nm, and SP 4290 computing integrator (all from ThermoSeparation|SpectraPhysics, Fremont, Calif.). RP-HPLC purification was done on a system composed of an SP 200 binary gradient pump (ThermoSeparation), a Rheodyne (Cotati, Calif.) model 7125 injector valve equipped with a 5-mL sample loop, and an SP 100 UV/VIS detector (ThermoSeparation) operated at 210 nm. Electrospray ionization (ESI) and tandem mass spectra were obtained on a quadrupole ion trap instrument (LCQ, Finnigan MAT, San Jose, Calif.). NMR spectra were recorded on Bruker AVANCE instruments (Bremen, Germany). Resonance frequencies were 500 and 600 MHz for ^1H and 127 MHz for ^13C. The samples were dissolved in H2O/D2O (8/2, v/v).

[2] = target: receptor labeled by the radioiodinated analogue of 1 (4, [125I]-YLFQPQRF-NH2); neuropeptide FF receptor; assay: Competitive radioligand binding against 4 ([125I]Y8F-amide); conditions: for Ki: competition against 4; for Relative Binding Index (RBI): mixture-based positional scanning, difference from averaged radioligand displacement of whole library (0), about 80 a.u. = 10-fold change in Ki
[3] = system: abstinence-like signs induced by neuropeptide FF (1); conditions: cited from earlier work
[4] = after systemic administration; cited from earlier work
[5] = system: naloxone-precipitated withdrawal symptoms; conditions: cited from earlier work
[6] = target: receptor labeled by the radioiodinated analogue of 1 (4, [125I]-YLFQPQRF-NH2); neuropeptide FF receptor; conditions: CNS membrane preparation, literature value; cited from earlier work

| Molecule | Relative Binding Index (RBI) [2] | further results |
| --- | --- | --- |
| CN(C)c1cccc2c(S(=O)(=O)NCC(=O)NC(CO)C(=O)NC(CCCNC(=N)N)C(N)=O)cccc12 (stereo not drawn) [Compound 5, dansyl-Gly-Ser-Arg-NH2] (Dansyl-Gly-Ser-Arg-NH2; configuration not given here) | 46 a.u. | kIAM′ (IAM capacity factor) [1]: 8.0; log kIAM′ [1]: 0.90; Ki [2]: 1400 ± 500 nM; increase in binding affinity compared to 3 ([2]; ratio of Ki values): approximately 10 fold |
| Desaminotyrosyl-Phe-Leu-Phe-Gln-Pro-Gln-Arg-NH2 (Desaminotyrosyl-FLFQPQR-NH2; SMILES CC(C)C[C@H](NC(=O)[C@H](Cc1ccccc1)NC(=O)CCc1ccc(O)cc1)C(=O)N[C@@H](Cc1ccccc1)C(=O)N[C@@H](CCC(N)=O)C(=O)N1CCC[C@H]1C(=O)N[C@@H](CCC(N)=O)C(=O)N[C@@H](CCCNC(=N)N)C(N)=O) [Compound 2] |  | abstinence-like signs induced by 1 in opiate-naive rats ([3]; icv administration): attenuated; Ki [2]: 840 ± 180 nM; CNS bioavailability [4]: did not show any CNS bioavailability; abstinence signs upon naloxone challenge in morphine-dependent animals ([5]; icv administration): attenuated |
| CN(C)c1cccc2c(S(=O)(=O)N3CCCC3C(=O)NC(CCC(N)=O)C(=O)NC(CCCNC(=N)N)C(N)=O)cccc12 (stereo not drawn) [Compound 3, Dansyl-Pro-Gln-Arg-NH2, reference compound] (Dansyl-Pro-Gln-Arg-NH2; configuration not given here) | −34 a.u. | inhibition constant (Ki) [6]: micromolar range; QMAS induced by 1 ([3]; rat, in vivo): dose-dependently antagonized; kIAM′ (IAM capacity factor) [1]: 5.9; log kIAM′ [1]: 0.77; Ki [2]: 13600 nM; naloxone-precipitated withdrawal symptoms in morphine-dependent rats ([5]; administered subcutaneously): blunted |
| Pro-Phe-Arg(Tic)-NH2 [Compound 3a] |  | potency (or efficacy) in the pharmacological tests employed ([5]; compared with 3): less than that of 3; naloxone-precipitated withdrawal symptoms in morphine-dependent rats ([5]; systemic administration): attenuated |
| CSCC[C@H](NS(=O)(=O)c1cccc2c(N(C)C)cccc12)C(=O)N[C@@H](Cc1c[nH]c2ccccc12)C(=O)N[C@@H](CCCNC(=N)N)C(N)=O [Dansyl-MWR-amide] (Dansyl-Met-Trp-Arg-NH2) | −35 a.u. |  |
| CN(C)c1cccc2c(S(=O)(=O)N[C@@H](CCC(N)=O)C(=O)N[C@@H](CCC(N)=O)C(=O)N[C@@H](CCCNC(=N)N)C(N)=O)cccc12 [Dansyl-QQR-amide, dansyl-Gln-Gln-Arg-NH2] (Dansyl-Gln-Gln-Arg-NH2) | 35 a.u. |  |
| CN(C)c1cccc2c(S(=O)(=O)N[C@@H](Cc3c[nH]c4ccccc34)C(=O)N[C@@H](Cc3ccccc3)C(=O)N[C@@H](CCCNC(=N)N)C(N)=O)cccc12 [Dansyl-WFR-amide] | 7 a.u. |  |
| CSCC[C@H](NC(=O)[C@H](CC(=O)O)NS(=O)(=O)c1cccc2c(N(C)C)cccc12)C(=O)N[C@@H](CCCNC(=N)N)C(N)=O [Dansyl-DMR-amide] (Dansyl-Asp-Met-Arg-NH2) | −6 a.u. |  |
| CN(C)c1cccc2c(S(=O)(=O)N[C@@H](Cc3ccc(O)cc3)C(=O)N[C@@H](Cc3ccccc3)C(=O)N[C@@H](CCCNC(=N)N)C(N)=O)cccc12 [Dansyl-YFR-amide] (Dansyl-Tyr-Phe-Arg-NH2) | 6 a.u. |  |
| CC[C@H](C)[C@H](NS(=O)(=O)c1cccc2c(N(C)C)cccc12)C(=O)N[C@@H](Cc1ccccc1)C(=O)N[C@@H](CCCNC(=N)N)C(N)=O [Dansyl-IFR-amide] (Dansyl-Ile-Phe-Arg-NH2) | −12 a.u. |  |
| CN(C)c1cccc2c(S(=O)(=O)N[C@@H](Cc3ccccc3)C(=O)N[C@@H](CCC(N)=O)C(=O)N[C@@H](CCCNC(=N)N)C(N)=O)cccc12 [Dansyl-FQR-amide] (Dansyl-Phe-Gln-Arg-NH2) | 23 a.u. |  |
| C[C@@H](O)[C@H](NS(=O)(=O)c1cccc2c(N(C)C)cccc12)C(=O)N[C@@H](CCC(=O)O)C(=O)N[C@@H](CCCNC(=N)N)C(N)=O [Dansyl-TER-amide] (Dansyl-Thr-Glu-Arg-NH2) | −8 a.u. |  |
| CN(C)c1cccc2c(S(=O)(=O)N3CCC[C@H]3C(=O)N[C@@H](CO)C(=O)N[C@@H](CCCNC(=N)N)C(N)=O)cccc12 [Dansyl-PSR-amide] (Dansyl-Pro-Ser-Arg-NH2) | −27 a.u. |  |
| CC[C@H](C)[C@H](NC(=O)[C@@H](NS(=O)(=O)c1cccc2c(N(C)C)cccc12)[C@@H](C)O)C(=O)N[C@@H](CCCNC(=N)N)C(N)=O [Dansyl-TIR-amide] (Dansyl-Thr-Ile-Arg-NH2) | −2 a.u. |  |
| CN(C)c1cccc2c(S(=O)(=O)NCC(=O)N[C@@H](CC(=O)O)C(=O)N[C@@H](CCCNC(=N)N)C(N)=O)cccc12 [Dansyl-GDR-amide] (Dansyl-Gly-Asp-Arg-NH2) | 7 a.u. |  |
| CC(C)C[C@H](NS(=O)(=O)c1cccc2c(N(C)C)cccc12)C(=O)N[C@@H](CCC(N)=O)C(=O)N[C@@H](CCCNC(=N)N)C(N)=O [Dansyl-LQR-amide] (Dansyl-Leu-Gln-Arg-NH2) | −18 a.u. |  |
| CN(C)c1cccc2c(S(=O)(=O)N[C@@H](Cc3ccc(O)cc3)C(=O)N[C@@H](CC(=O)O)C(=O)N[C@@H](CCCNC(=N)N)C(N)=O)cccc12 [Dansyl-YDR-amide] (Dansyl-Tyr-Asp-Arg-NH2) | −11 a.u. |  |
| CC[C@H](C)[C@H](NS(=O)(=O)c1cccc2c(N(C)C)cccc12)C(=O)N[C@H](C(=O)N[C@@H](CCCNC(=N)N)C(N)=O)C(C)C [Dansyl-IVR-amide] (Dansyl-Ile-Val-Arg-NH2) | −16 a.u. |  |
| C[C@H](NS(=O)(=O)c1cccc2c(N(C)C)cccc12)C(=O)N[C@@H](CCCNC(=N)N)C(=O)N[C@@H](CCCNC(=N)N)C(N)=O [Dansyl-ARR-amide] (Dansyl-Ala-Arg-Arg-NH2) | 11 a.u. |  |
| CC(C)C[C@H](NC(=O)[C@@H](NS(=O)(=O)c1cccc2c(N(C)C)cccc12)[C@@H](C)O)C(=O)N[C@@H](CCCNC(=N)N)C(N)=O [Dansyl-TLR-amide] (Dansyl-Thr-Leu-Arg-NH2) | −17 a.u. |  |
| CSCC[C@H](NS(=O)(=O)c1cccc2c(N(C)C)cccc12)C(=O)N1CCC[C@H]1C(=O)N[C@@H](CCCNC(=N)N)C(N)=O [Dansyl-MPR-amide] (Dansyl-Met-Pro-Arg-NH2) | −41 a.u. |  |
| CC(C)C[C@H](NC(=O)[C@H](Cc1c[nH]c2ccccc12)NS(=O)(=O)c1cccc2c(N(C)C)cccc12)C(=O)N[C@@H](CCCNC(=N)N)C(N)=O [Dansyl-WLR-amide] | 0 a.u. |  |
| CSCC[C@H](NC(=O)[C@H](CCCNC(=N)N)NS(=O)(=O)c1cccc2c(N(C)C)cccc12)C(=O)N[C@@H](CCCNC(=N)N)C(N)=O [Dansyl-RMR-amide] (Dansyl-Arg-Met-Arg-NH2) | 7 a.u. |  |
| CN(C)c1cccc2c(S(=O)(=O)N[C@@H](Cc3c[nH]c4ccccc34)C(=O)N[C@@H](CCCNC(=N)N)C(=O)N[C@@H](CCCNC(=N)N)C(N)=O)cccc12 [Dansyl-WRR-amide] (Dansyl-Trp-Arg-Arg-NH2) | 7 a.u. |  |
| CC[C@H](C)[C@H](NS(=O)(=O)c1cccc2c(N(C)C)cccc12)C(=O)N1CCC[C@H]1C(=O)N[C@@H](CCCNC(=N)N)C(N)=O [Dansyl-IPR-amide] (Dansyl-Ile-Pro-Arg-NH2) | −8 a.u. |  |
| CSCC[C@H](NS(=O)(=O)c1cccc2c(N(C)C)cccc12)C(=O)N[C@@H](CCC(N)=O)C(=O)N[C@@H](CCCNC(=N)N)C(N)=O [Dansyl-MQR-amide] (Dansyl-Met-Gln-Arg-NH2) | −30 a.u. |  |
| CN(C)c1cccc2c(S(=O)(=O)N[C@@H](Cc3c[nH]c4ccccc34)C(=O)N[C@@H](CC(=O)O)C(=O)N[C@@H](CCCNC(=N)N)C(N)=O)cccc12 [Dansyl-WDR-amide] (Dansyl-Trp-Asp-Arg-NH2) | −9 a.u. |  |
| CSCC[C@H](NC(=O)[C@H](C)NS(=O)(=O)c1cccc2c(N(C)C)cccc12)C(=O)N[C@@H](CCCNC(=N)N)C(N)=O [Dansyl-AMR-amide] (Dansyl-Ala-Met-Arg-NH2) | 12 a.u. |  |
